# According to patent publication US9504666B2, “Chloroprocaine-based pharmaceutical composition for repeated intrathecal administration” (SINTETICA S.A., priority 2012, dated 2016):
# Read-outs that look alike come from different tables or passages of the source.
# Assays:
# [1] = test system: rats; conditions: rat, in vivo
# Procedure: (§1) A pre-clinical trial was carried out to assess the neurotoxicity of 2-chloroprocaine by intrathecal administration in repeated doses using a saline solution as control.
# (§2) A first group of six rats was repeatedly treated with 20 μl of an injectable saline solution by intrathecal administration once a day.
# [2] = in particular in form of hydrochloride; cited from earlier work
# [3] = cited from earlier work
# [4] = test system: rats; experiment: Tail flick latency after repeated intrathecal doses; conditions: for tail flick latency before injecting: before the daily 20 μl intrathecal injection
# Procedure: The data are presented as ±SEM average of 6 rats;
# as §1, §2
# [5] = test system: rats; experiment: Behaviour observation in the pre-clinical neurotoxicity trial with repeated intrathecal doses; conditions: for changes in behavior: 7 consecutive days
# Procedure: as §1, §2
# [6] = test system: rats; conditions: rat, in vivo; remark: listed apart in the source
# Procedure: as §1, §2
# [7] = test system: rat; conditions: in vivo rat models, intrathecal, equipotent concentrations, versus lidocaine; cited from earlier work
# [8] = test system: rats; experiment: Motor function score after repeated intrathecal doses; conditions: 20 μl of 0.5% solution intrathecally once a day, 7 consecutive days
# Procedure: as §1, §2
# [9] = Body weight variation after repeated intrathecal doses; conditions: rats, 20 μl of 0.5% solution intrathecally once a day, 7 consecutive days
# Procedure: as §1, §2
# [10] = test system: conus medullaris (cauda equina); experiment: Histological nerve injury score of 10 mm caudal portion of conus medullaris (cauda equina); conditions: 0.5% solution
# [11] = cited from earlier work; remark: listed apart in the source
# [12] = 20 μl of 0.5% solution intrathecally, chloroprocaine not significant, bupivacaine P<0.001
# [13] = rats, 20 μl of 0.5% solution intrathecally once a day
compound,measurement,setting,value
"CCN(CC)CCOC(=O)c1ccc(N)cc1Cl [2-chloroprocaine, 2-(diethylaminoethyl) 4-amino-2-chlorobenzoate]",motor functions (score),[1],remained unchanged
same,lasting of effect,[2],30 to 60 min
same,onset,[2],5 to 15 min
same,half-life,[3]; offset by plasma pseudo cholinesterase,lower than one
same,plasma half-life,[3]; plasma,45 to 60 s
same,tail flick latency before injecting,[4]; 0.5% solution,comparable with the values of rats treated with vehicle
same,tail flick latency before injecting,[4]; 1% solution,comparable with the values of rats treated with vehicle
same,tail flick latency before injecting,[4]; 2% solution,comparable with the values of rats treated with vehicle
same,tail flick latency 20 minutes after injection,[4]; [12],slight increase
same,tail flick latency 20 minutes after injection,"[4]; 20 μl of 1% solution intrathecally, P<0.05",significant increase
same,tail flick latency 20 minutes after injection,"[4]; 20 μl of 2% solution intrathecally, P<0.001",significant increase
same,changes in behavior,[5]; [13],No appreciable changes in behavior
same,changes in behavior,"[5]; rats, 20 μl of 1% solution intrathecally once a day",No appreciable changes in behavior
same,changes in behavior,"[5]; rats, 20 μl of 2% solution intrathecally once a day",No appreciable changes in behavior
same,tolerability compared with other administered concentrations,"[5]; rats, repeated intrathecal, 2-chloroprocaine 2%, bupivacaine 0.5%",less tolerated
same,neurotoxicity of repeated intrathecal administration,[5]; repeated intrathecal administration,does not determine detectable neurotoxicity
CCCCN1CCCCC1C(=O)Nc1c(C)cccc1C (stereo not drawn) [bupivacaine],tolerability compared with other administered concentrations,[6],less tolerated
same,morphological damage and functional worsening,[7],less severe morphological damage and functional worsening than lidocaine
same,tail flick latency before injecting,[4]; 0.5% solution,comparable with the values of rats treated with vehicle
same,tail flick latency 20 minutes after injection,[4]; [12],significant increase
same,motor functions (score),[8],two rats on the sixth day and three rats on the seventh day showed bilateral limbic weakness which influenced perambulation (score 2)
same,body weight,[9],decreased
same,"moderately inflammatory infiltrate in some fibers, number of rats","[10]; group of 6 rats, 7 days repeated intrathecal",one
same,histological score (nerve injury score 0 to 3),"[10]; rats, 20 μl intrathecally once a day for 7 days, ±SEM of 6 rats, vehicle 0.809±0.067",0.979±0.110
same,changes in behavior,[5]; [13],modest sleepiness in one rat on the fifth day and in two rats on the sixth and seventh days
CCN(CC)CC(=O)Nc1c(C)cccc1C [lidocaine],transient neurologic syndrome (TNS),"[11]; use in spinal anesthesiological practice, Pollock 2002",associated to the onset of transient neurologic syndrome (TNS)
CCN(CC)CCOC(=O)c1ccc(N)cc1 [procaine],percentage of cases refractory to local anesthesia,"[11]; spinal anesthesia, Hodgson et al. 2000",17%
